# Results published in US6248718A, “Lesion-directed dry dosage forms of antibacterial agents for the treatment of acute mucosal infections of the oral cavity” (priority 1999, dated 2001).
# Entries after “also recorded” stand apart in the source; their conditions may differ.
# Experiments:
# [1] = Local concentration of penicillin in saliva after a troche containing 50 mg penicillin G; assay type: in vivo, human; conditions: 50 mg troche, end of one hour; 60 min
# Procedure: The local concentration of penicillin in the saliva was determined as follows. […] This loculated pocket of saliva was not swallowed and was not to be diluted with excess saliva from other parts of the mouth for one hour. Two samples were taken for assay to determine the peak and trough local concentrations of penicillin during the one-hour duration of medicinal treatment. At the time when the troche was completely dissolved and one hour later, aliquots of 10 microliters were pipetted from this pocket of saliva solution at the site of medication, representing the peak level and the trough level of antibiotic concentration, and transferred into 10 ml of distilled water to make a 1:1.000 dilution and into 1 ml of distilled water to make a 1:100 dilution, respectively. The diluted saliva antibiotic solutions were passed through a sterile bacteria-filter to remove any bacterial or fungal contaminants of the oral flora.
# For determination of the peak concentration, 1 ml of the bacteria-free filtrate was further diluted with 9 ml of nutrient broth to achieve a 1:10,000 dilution of the saliva. Then a serial two-fold dilution was made of this 1:10,000 diluted saliva sample with an equal volume of nutrient broth in a roll of test tubes to obtain a series of 1 ml aliquots of nutrient broth in which the saliva was diluted to 20,000, 40,000, 80,000, 160,000, 320,000, 640,000, 1,280,000 and 2,560,000 folds respectively. […] Thus the final dilutions of the saliva sample were in the range of 40,000 to 5,120,000 folds.
# For determining the trough concentration, the entire 1 ml of the 1:100 diluted saliva filtrate was used to make the serial dilutions so that the final dilutions of saliva sample were in the range of 4,000 to 256,000 folds in the final test culture.
# As control standards, a series of test tubes containing 1 ml of nutrient broth with varying concentrations of penicillin G potassium salt ranging from 0.1 units to 10 units/ml were similarly mixed with an equal volume of nutrient broth freshly inoculated with the standard tubes of Staphylococcus aureus. Both the test and control standard tubes were incubated at 37° C. for 18 hours. Among the test tubes showing no gross evidence of bacterial growth, the one containing the highest dilution of saliva and the one containing the least amount of penicillin G were considered as having the identical concentration of penicillin, i.e. the MIC of the staphylococcus aureus.
# [2] = tested on: bacteria in saliva of healthy volunteers; assay: Inhibition of bacterial growth in the saliva in vivo (Example V); conditions: for bacterial colonies from saliva after topical medication: 1 hour, 0.1 ml saliva
# Procedure: Five healthy adult volunteers, three men and two women, were asked to refrain from drinking or eating for two hours after breakfast. At the end of two hours, an aliquot of 0.1 ml of saliva was pipetted from the mouth of each volunteer and spread over the surface of a sheep blood agar plate with a sterile plastic loop. The inoculated blood agar plate was incubated in an aerobic atmosphere containing 5% CO2 as pre-medication control. Then 100 mg, 50 mg, 20 mg, 10 mg and 2 mg of penicillin G potassium dry powder, USP grade, were placed in the right buccal pouch with a spatula between the cheek and the lower gum of each volunteer, respectively. The volunteers were asked to retain the dissolved penicillin powder at the site of medication as concentrated as possible, not to be diluted by saliva from other parts of the mouth for one hour.
# At the end of one hour, 0.1 ml of saliva from each volunteer was pipetted from the right buccal pouch where the medication was placed, and inoculated and spread onto the surface of a sheep blood agar plate. The inoculum was spread with a sterile plastic loop.
# [3] = Local concentrations of penicillin in saliva after penicillin G potassium 50 mg tablet (Example IX); assay type: in vivo, human
# Procedure: Five healthy adult volunteers, three men and two women, were selected for this study.
# On the day of study, two hours after breakfast, the volunteers were given a single tablet of the drug, placed in the right oral sulcus between the lower gum and the buccal mucosa to be dissolved in a minimum amount of saliva in about six (6) minutes. This loculated pocket of saliva was not to be swallowed and was not to be further diluted by saliva from other parts of the mouth for one hour. At 6 minutes, 20 minutes, 40 minutes and 60 minutes after drug application, an aliquot of 0.01 ml was aspirated from this pocket of saliva and added into a test tube containing 10 ml of nutrient broth to give a 1,000 times dilution. After being mixed well, aliquots of the mixtures of saliva sample and nutrient broth were forced to pass through bacterial filters into sterile test tubes. Thcn 0.8 ml of each 1:1,000 diluted filtrate was pipetted and added to 3.2 ml of nutrient broth to make an additional 5 times dilution in a volume of 4 ml. Two ml was pipetted from the latter to make a serial double dilution of saliva sample in 2 ml of nutrient broth, as described above under a, in 12 test tubes. The dilution factor for the saliva sample in test No. 1 was 5,000 and […] progressively to 1:10,240,000 in test tube No.12.
# Each filtered mixture in test tube was inoculated with 0.1 ml of a 1:1,000 dilution of a 12 hour broth culture of Staphyloccus aureus ATCC 29213.
# A row of 6 test tubes each containing 2 ml of nutrient broth with decreasing concentrations of penicillin G potassium, USP Reference Standard 502508, at 6.2, 3.1, 1.5, 0.75, 0.32, and 0.16 mcg/ml, using a serial double dilution method described in a., was prepared and similarly inoculated with 0.1 ml broth culture of Staphyloccus aureus ATCC 29213 as the standard.
# All test tubes were incubated at 37° C. for 18 hours and observed for bacterial growth against an inoculated broth containing neither antibiotic nor saliva samples.
# The test tube of highest number with the highest dilution factor of saliva in nutrient broth in which no bacterial growth was observed was interpreted as containing an equivalent of penicillin G potassium at 0.75 mcg/ml. Using the dilution factors, it was calculated that, after topical application of the drug product, the concentrations of penicillin G potassium in the saliva at the site of medication within the first hour were as follows.
# [4] = Topical dry dosage treatment of minor aphthous ulcers, gingivitis and periodontal infections; assay type: in vivo, human; conditions: 50 mg dry dosage form, four times a day
# From the text: The administration of the medicament depends upon the type of infection to be treated and the type and dosage of the antibacterial agent used. The appropriate antibacterial agent, dosage and treatment regimen can readily be determined by someone having ordinary skill in this art. […] Thorough tooth cleaning is advised prior to introduction of the medicament to an infected area.
structure (smiles),measurement,setting,value
CC1(C)S[C@@H]2[C@H](NC(=O)Cc3ccccc3)C(=O)N2[C@H]1C(=O)O [penicillin G potassium],local trough concentration in saliva,[1],7.5 to 15 mg/mL
same,bacterial colonies from saliva after topical medication,[2]; 2 mg powder,a few isolated bacterial colonies; also recorded: partial inhibition of growth
same,bacterial colonies from saliva after topical medication,[2]; 10 mg powder,no bacterial colonies
same,bacterial colonies from saliva after topical medication,[2]; 20 mg powder,no bacterial colonies
same,bacterial colonies from saliva after topical medication,[2]; 50 mg powder,no bacterial colonies
same,bacterial colonies from saliva after topical medication,[2]; 100 mg powder,no bacterial colonies
same,dose required for total cessation of bacterial growth in small pocket of saliva,"[2]; powder, one-hour medication",at least 10 mg
same,concentration at 0.1 h,"[3]; human, saliva, topical or ocular, 50 mg tablet, 6 min",240000 to 480000 µg/mL
same,concentration at 20 min,"[3]; human, saliva, topical or ocular, 50 mg tablet, 20 min",120000 to 240000 µg/mL
same,concentration at 40 min,"[3]; human, saliva, topical or ocular, 50 mg tablet, 40 min",30000 to 60000 µg/mL
same,concentration at 1 h,"[3]; human, saliva, topical or ocular, 50 mg tablet, 60 min",7500 to 15000 µg/mL
same,initial local concentration in saliva,[3]; tablet of 50 mg penicillin G potassium,about 480 mg/ml
same,local concentration in saliva in one hour,"[3]; tablet of 50 mg penicillin G potassium, 60 min",7.5 to 15 mg/mL
same,patients with complete relief of pains within about 48 hours,[4],over 90%
same,time to complete relief of pains,[4],≤ 48 h
